No end group written: not given here.
System: mice
Assay: fast refeed (fast-refeeding) assay
Format: in vivo
Protocol: In vivo assays. Exemplary in vivo assays include the fast-refeeding assay described in Example 1 and as follows.
Food is removed at 6 pm for an overnight (˜16 hour) fast. Beginning at 10 am on the next morning, mice are administered with either vehicle (e.g., saline+acetic acid, pH=5) or the compound of interest. Mice are then returned to their home cages and pre-weighed food (approximately 90 grams) is immediately returned to the food hoppers in each cage. The weight of the food remaining in the food hoppers is measured at 30 minutes, 1 hour, 2 hours, and 4 hours post compound/vehicle administration. Final body weights are then recorded for the mice.

For “substance P (RPKPQQFFGLM; ends and bridges not checked; UniProt P20366 58-68, looked up)”, the feeding activity was “alters feeding activity”.

— patent US20080261970A1, “Sufonamides and Uses Thereof” (ELIXIR PHARMACEUTICALS, INC., priority 2004, published 2008)
